Measurements taken from US20250188030A1, “Biphenyl and Phenylpyridine Compounds” (Pfizer Inc., priority 2023, published 2025).
Like-named read-outs stand apart in the source and are kept apart here.

Key:
MM.1S cells = experiment: MM1.S 10 Day Proliferation Assay (CellTiter-Glo); format: cell-based, Human
Description: Human B lymphoblast cell line MM.1S was obtained from American Type Culture Collection (ATCC), Manassas, VA USA, Cat. MM.1S (ATCC® CRL-2974™). Cells were cultured in RPMI (Thermo Fisher Scientific/Gibco Life Technologies Cat. #111875-093) plus 10% (v/v) FBS (Thermo Fisher Scientific/Gibco Life Technologies Cat. #26140-079) and 1% Penicillin-Streptomycin (Thermo Fisher Scientific/Gibco Life Technologies Cat. #15070063) at 37° C. in 5% CO2.
MM1.S cells were trypsinized cell viability count performed, and cells suspended in complete media at 5,556 cells/ml. Cells were then seeded (90 μl/well) into a 96-well round black/clear bottom, ULA (Ultra-Low Attachment surface plate (Corning cat #4520) at a density of 500 cells/well. Cells were then incubated for 16 hours at 37° C. and 5% CO2. Compound dilution plates were prepared in 96-well, clear U-bottom, polypropylene plates (Corning 3365) in 100% DMSO at 10 mM stock concentration in duplicate wells, using a 10-point serial dilution (1:3 dilutions). Compounds were diluted to 1:100 in growth medium. Then 10 μl of diluted compounds were added to each well of the cell plates using a Beckman FX liquid handling system such that the highest compound concentration tested was 10 μM final, with a 0.1% final DMSO concentration in the total volume of 100 μl. Plates were incubated for 10 total days at 37° C. and 5% CO2. Fresh media containing compound was refreshed at 5 days treatment.
Finally, the treatment plates were removed from the incubator and 100 μl of CellTiter-Glo Luminescent reagent was added to each well, and plates were equilibrated in the dark for 30 minutes. Plates were read on the PHERAstar plate reader using the 96-well with Luminescent reading mode. IC50 values were calculated using a four-parameter fit with GraphPad Prism version 9.5.1 or in house modified IDBS ActivityBase data analyzing package.

H3K9AC (HT1080 cells) = experiment: H3K9AC Sandwich ELISA Assay in HT1080 cells (KAT2A primary cell-based screening assay); design: species or system Human
Procedure, shortened: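 HT1080 fibrosarcoma cells seeded 16 h, then treated 24 h at 37 °C with 10-point 1:3 compound dilutions (top 10 µM final, 0.1% DMSO). Acid lysates neutralized with butyrate/PMSF; H3K9ac measured by total-H3-capture sandwich ELISA with luminescent HRP readout, IC50 by four-parameter fit.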

KAT2A = KAT2A (Homo sapiens (Human), UniProt Q92830); experiment: KAT2A acetyltransferase biochemical assay (RapidFire mass spectrometry, AcCoA to CoA)
[1] = read-out: KAT2A Ki at 1 μM AcCoA, 5 μM H3 1-21 peptide, 0.5 nM KAT2A, 90-minute reaction
[2] = Homo sapiens, HT-1080, H3K9AC sandwich ELISA
[3] = KAT2A Ki at 1 μM AcCoA, 5 μM H3 1-21 peptide, 0.5 nM KAT2A, 90-minute reaction

KAT2A, sequence (Q92830 whole entry): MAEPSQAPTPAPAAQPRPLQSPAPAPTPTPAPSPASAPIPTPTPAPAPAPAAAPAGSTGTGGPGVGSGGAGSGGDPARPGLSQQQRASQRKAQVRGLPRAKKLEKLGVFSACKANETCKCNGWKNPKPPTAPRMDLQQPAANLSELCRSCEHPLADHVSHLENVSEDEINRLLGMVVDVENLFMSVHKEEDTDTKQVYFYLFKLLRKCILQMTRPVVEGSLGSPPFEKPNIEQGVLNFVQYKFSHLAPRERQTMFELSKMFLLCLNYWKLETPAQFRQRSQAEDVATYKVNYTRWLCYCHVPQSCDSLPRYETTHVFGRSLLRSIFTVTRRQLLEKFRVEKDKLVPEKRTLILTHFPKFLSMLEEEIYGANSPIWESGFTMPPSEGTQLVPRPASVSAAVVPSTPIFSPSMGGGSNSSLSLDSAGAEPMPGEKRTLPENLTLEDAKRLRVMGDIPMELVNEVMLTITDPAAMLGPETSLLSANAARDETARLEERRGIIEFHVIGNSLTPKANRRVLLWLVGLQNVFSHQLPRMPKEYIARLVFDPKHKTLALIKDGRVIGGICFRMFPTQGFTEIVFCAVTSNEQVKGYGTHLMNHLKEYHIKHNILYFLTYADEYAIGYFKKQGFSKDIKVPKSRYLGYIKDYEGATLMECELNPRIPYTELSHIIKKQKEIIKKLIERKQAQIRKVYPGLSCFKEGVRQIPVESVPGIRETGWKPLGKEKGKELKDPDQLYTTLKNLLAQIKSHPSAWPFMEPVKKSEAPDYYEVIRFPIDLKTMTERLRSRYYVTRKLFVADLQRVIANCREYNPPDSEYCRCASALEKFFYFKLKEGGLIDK

Row | Compound | IC50 (MM.1S cells) [nM] | IC50 (H3K9AC (HT1080 cells); H3K9AC sandwich ELISA) [nM] | Ki (KAT2A; [1]) [nM] | IC50 (MM.1S cells; Homo sapiens, MM1.S, 240 h) [nM] | IC50 (H3K9AC (HT1080 cells); [2]) [nM] | Ki (KAT2A; [3]) [nM]
1 | CC(C)c1c(F)cccc1-c1cc(C(C)(C)C(=O)O)ccc1O[C@@H]1CC[C@@H](NC(=O)[C@@]2(F)CNC3(CCC3)C2)C1 (single isomer, unassigned) [Example A21] | > 10000 | > 1000 | > 99.9 |  |  | 
2 | CC(C)c1c(F)cccc1-c1cc(C(C)(C)C(=O)O)ccc1O[C@@H]1CC[C@@H](NC(=O)[C@@]2(F)CNC3(CCC3)C2)C1 (single isomer, unassigned) [Example A22] | 101 | 4.33 | 0.34 |  |  | 
3 | O=C(O)Cc1ccc(O[C@@H]2CC[C@@H](NC(=O)[C@@]3(F)CNC4(CCCC4)C3)C2)c(-c2cccc(F)c2C2CCC2)c1 (single isomer, unassigned) [Example A25] |  | 4.22 | 0.68 | 26 |  | 
4 | CC(C)(C(=O)O)c1ccc(O[C@@H]2CC[C@@H](NC(=O)[C@@]3(F)CNCC4(CCC4)C3)C2)c(-c2cccc(F)c2C2CCC2)c1 (single isomer, unassigned) [Example A27] |  | 7.6 | 0.16 | 26.3 |  | 
5 | O=C(O)c1ccc(O[C@@H]2CC[C@@H](NC(=O)[C@@]3(F)CNCC4(CCC4)C3)C2)c(-c2cccc(F)c2C2CCC2)c1 (single isomer, unassigned) [Example A34] |  | 1.4 | 0.21 | 7.8 |  | 
6 | O=C(O)c1ccc(O[C@@H]2CC[C@@H](NC(=O)[C@@]3(F)CNC4(CCCC4)C3)C2)c(-c2cccc(F)c2C2CCC2)c1 (single isomer, unassigned) [Example A36] |  | 0.7 | 0.1 | 3.5 |  | 
7 | CC1(C)CNCC(F)(C(=O)N[C@@H]2CC[C@@H](Oc3ccc(C(=O)O)cc3-c3cccc(F)c3C3CCC3)C2)C1 (single isomer, unassigned) [Example A38] |  | 4 | 0.02 | 18.3 |  | 
8 | CC(C)c1ccccc1-c1cc(C(=O)O)ccc1O[C@@H]1CC[C@@H](NC(=O)[C@@]2(F)CNC3(CCCC3)C2)C1 (single isomer, unassigned) [Example A40] | > 1000 | > 1000 | > 99.9 |  |  | 
9 | CCc1c(F)cccc1-c1cc(C(=O)O)ccc1O[C@@H]1CC[C@@H](NC(=O)[C@@]2(F)CNC3(CCCC3)C2)C1 (single isomer, unassigned) [Example A42] | 37.4 | 8.4 | 0.41 |  |  | 
10 | CCc1c(F)cccc1-c1cc(C(=O)O)ccc1O[C@@H]1CC[C@@H](NC(=O)[C@@]2(F)CNC3(CCCC3)C2)C1 (single isomer, unassigned) [Example A43] | > 1000 | > 1000 | > 99.9 |  |  | 
11 | CC(C)(C(=O)NS(=O)(=O)N1CC(F)C1)c1ccc(O[C@@H]2CC[C@@H](NC(=O)[C@@]3(F)CNC4(CCC4)C3)C2)c(-c2cccc(F)c2C2CCC2)c1 (single isomer, unassigned) [Example B5] |  |  | 0.09 | 13.3 | 9.93 | 
12 | CN1C[C@](F)(C(=O)N[C@@H]2CC[C@@H](Oc3ccc(C(C)(C)C(=O)NS(C)(=O)=O)cc3-c3cccc(F)c3C3CCC3)C2)CC1(C)C (single isomer, unassigned) [Example B7] |  |  | 3.78 | 102 | 20.9 | 
13 | CC(C)(C(=O)NS(=O)(=O)C1CC1)c1ccc(O[C@@H]2CC[C@@H](NC(=O)[C@]3(F)CNC4(CCC4)C3)C2)c(-c2cccc(F)c2C2CCC2)c1 (single isomer, unassigned) [Example B12] |  |  | 0.18 | 14.1 | 1.4 | 
14 | CCS(=O)(=O)NC(=O)C(C)(C)c1ccc(O[C@@H]2CC[C@@H](NC(=O)[C@@]3(F)CNC(C)(C)C3)C2)c(-c2cccc(F)c2C2CCC2)c1 (single isomer, unassigned) [Example B14] | 553 | 49.1 | 1.83 |  |  | 
15 | CS(=O)(=O)NC(=O)Cc1ccc(O[C@@H]2CC[C@@H](NC(=O)C3(F)CNC4(CCCC4)C3)C2)c(-c2cccc(F)c2C2CCC2)c1 (single isomer, unassigned) [Example B16] |  |  |  | 11.6 | 2.68 | 0.08
16 | CC(C)S(=O)(=O)NC(=O)C(C)(C)c1ccc(O[C@@H]2CC[C@@H](NC(=O)[C@@]3(F)CNC(C)(C)C3)C2)c(-c2cccc(F)c2C2CCC2)c1 (single isomer, unassigned) [Example B17] | 41.7 | 3.49 | 0.1 |  |  | 
17 | CC(C)S(=O)(=O)NC(=O)C(C)(C)c1ccc(O[C@@H]2CC[C@@H](NC(=O)[C@@]3(F)CNC(C)(C)C3)C2)c(-c2cccc(F)c2C2CCC2)c1 (single isomer, unassigned) [Example B18] | 1270 | 121 | 16.1 |  |  | 
18 | CCS(=O)(=O)NC(=O)C(C)(C)c1ccc(O[C@@H]2CC[C@@H](NC(=O)[C@@]3(F)CNCC(C)(C)C3)C2)c(-c2cccc(F)c2C2CCC2)c1 (single isomer, unassigned) [Example B22] |  |  | 0.09 | 2.51 | 2.38 | 
19 | CC(C)(C(=O)NS(=O)(=O)C1CC1)c1ccc(O[C@@H]2CC[C@@H](NC(=O)[C@@]3(F)CNC4(CCCC4)C3)C2)c(-c2cccc(F)c2C2CCC2)c1 (single isomer, unassigned) [Example B26] |  |  | 0.06 | 7.4 | 2.2 | 
20 | CC(C)S(=O)(=O)NC(=O)C(C)(C)c1ccc(O[C@@H]2CC[C@@H](NC(=O)[C@@]3(F)CNCC(C)(C)C3)C2)c(-c2cccc(F)c2C2CCC2)c1 (single isomer, unassigned) [Example B30] |  |  | 0.09 | 4.2 | 1.7 | 
21 | CCS(=O)(=O)NC(=O)C(C)(C)c1ccc(O[C@@H]2CC[C@@H](NC(=O)[C@@]3(F)CNCC4(CCC4)C3)C2)c(-c2cccc(F)c2C2CCC2)c1 (single isomer, unassigned) [Example B31] |  | 2.1 | 0.04 | 1.4 |  | 
22 | CC(C)(C(=O)NS(=O)(=O)C1(C)CC1)c1ccc(O[C@@H]2CC[C@@H](NC(=O)[C@@]3(F)CNC4(CCC4)C3)C2)c(-c2cccc(F)c2C2CCC2)c1 (single isomer, unassigned) [Example B34] |  |  | 0.04 | 8.4 | 3.1 | 
23 | CCc1c(F)cccc1-c1cc(C(C)(C)C(=O)NS(C)(=O)=O)ccc1O[C@@H]1CC[C@@H](NC(=O)[C@@]2(F)CNC3(CCC3)C2)C1 (single isomer, unassigned) [Example C11] |  |  | 2.22 | 253 | 21.6 | 
24 | CC(C)c1c(F)cccc1-c1cc(C(C)(C)C(=O)NS(C)(=O)=O)ccc1O[C@@H]1CC[C@@H](NC(=O)[C@@]2(F)CNC3(CCC3)C2)C1 (single isomer, unassigned) [Example C20] | > 10000 | > 1000 | 708 |  |  | 
25 | CC(C)(C(=O)NS(=O)(=O)C1(C)CC1)c1ccc(O[C@@H]2CC[C@@H](NC(=O)[C@@]3(F)CNC4(CCC4)C3)C2)c(-c2cccc(F)c2C2CC2)c1 (single isomer, unassigned) [Example C22] | 7.8 | 4.49 | 0.14 |  |  | 
26 | O=C(Cc1ccc(O[C@@H]2CC[C@@H](NC(=O)[C@@]3(F)CNC4(CCC4)C3)C2)c(-c2cccc(F)c2C2CCC2)c1)NS(=O)(=O)C1CC1 (single isomer, unassigned) [Example C31] |  |  | 0.02 | 2.85 | 1.78 | 
27 | CC1(C)CNC[C@](F)(C(=O)N[C@@H]2CC[C@@H](Oc3ccc(C(C)(C)C(=O)NS(=O)(=O)C4(C)CC4)cc3-c3cccc(F)c3C3CCC3)C2)C1 (single isomer, unassigned) [Example C35] |  |  | 0.14 | 7.8 | 3.5 | 
28 | CC1(C)CNC[C@](F)(C(=O)N[C@@H]2CC[C@@H](Oc3ccc(C(C)(C)C(=O)NS(C)(=O)=O)cc3-c3cccc(F)c3C3CCC3)C2)C1 (single isomer, unassigned) [Example C37] |  |  | 0.06 | 11 | 3 | 
29 | CS(=O)(=O)NC(=O)Cc1ccc(O[C@@H]2CC[C@@H](NC(=O)[C@]3(F)CNC4(CCC4)C3)C2)c(-c2cccc(F)c2C2CCC2)c1 (single isomer, unassigned) [Example C38] |  |  |  | 10.2 | 6.1 | 0.09
